The source made the active and inactive calls. The rule behind the calls is not given here.
Experiments:
[1] = target: T1, Ubiquitin carboxyl-terminal hydrolase 28 (Homo sapiens, UniProt Q96RU2); assay: Inhibition of USP28 (149 to 703 residues) (unknown origin) expressed in Escherichia coli BL21 (DE3) using Ub-AMC as substrate by fluorescence based analysis
T1 sequence (Q96RU2 whole entry): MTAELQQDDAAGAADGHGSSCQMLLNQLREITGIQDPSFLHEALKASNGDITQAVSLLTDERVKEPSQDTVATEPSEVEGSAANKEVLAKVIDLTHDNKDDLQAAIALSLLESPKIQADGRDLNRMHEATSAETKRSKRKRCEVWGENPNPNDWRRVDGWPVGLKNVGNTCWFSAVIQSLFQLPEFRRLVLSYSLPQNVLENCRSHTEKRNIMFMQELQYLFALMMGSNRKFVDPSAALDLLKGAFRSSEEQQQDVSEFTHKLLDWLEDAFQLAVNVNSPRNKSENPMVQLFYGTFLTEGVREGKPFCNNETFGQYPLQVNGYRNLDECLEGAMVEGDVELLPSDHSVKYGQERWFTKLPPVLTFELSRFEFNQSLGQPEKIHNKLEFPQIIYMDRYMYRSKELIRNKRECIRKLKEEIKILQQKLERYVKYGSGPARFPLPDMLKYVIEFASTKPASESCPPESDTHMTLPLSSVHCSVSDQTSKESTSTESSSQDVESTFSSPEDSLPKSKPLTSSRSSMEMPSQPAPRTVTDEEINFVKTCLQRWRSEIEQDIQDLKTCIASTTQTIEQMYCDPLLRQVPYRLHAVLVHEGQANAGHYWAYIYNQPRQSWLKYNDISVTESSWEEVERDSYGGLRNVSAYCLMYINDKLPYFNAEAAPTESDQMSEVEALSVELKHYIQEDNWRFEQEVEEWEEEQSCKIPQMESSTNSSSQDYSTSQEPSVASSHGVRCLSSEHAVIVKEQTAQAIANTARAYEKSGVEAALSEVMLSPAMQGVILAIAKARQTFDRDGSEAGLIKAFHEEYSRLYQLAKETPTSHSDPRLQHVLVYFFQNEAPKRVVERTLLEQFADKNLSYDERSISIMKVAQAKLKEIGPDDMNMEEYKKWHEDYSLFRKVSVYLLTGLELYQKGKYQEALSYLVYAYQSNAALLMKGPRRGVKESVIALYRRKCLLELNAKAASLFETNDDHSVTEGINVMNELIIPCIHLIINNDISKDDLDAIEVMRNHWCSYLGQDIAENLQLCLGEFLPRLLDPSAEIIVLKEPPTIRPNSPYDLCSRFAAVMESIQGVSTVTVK

HCT-116 [2] = assay: Inhibition of colony formation in human HCT-116 cells at 15 uM by crystal violet staining assay; type: functional, cell-based
LS174T [3] = assay: Inhibition of colony formation in human LS174T cells at 10 uM by crystal violet staining assay; type: functional, cell-based
HCT-116 [4] = assay: Antiproliferative activity against human HCT-116 cells assessed as effect on Bcl-2 protein level at 30 to 100 uM incubated for 1 day by western blotting analysis; type: functional, cell-based; details: dose 30-100 µM
LS174T [5] = assay: Inhibition of colony formation in human LS174T cells at 12.5 uM by crystal violet staining assay; type: functional, cell-based
[6] = target: T2, Ubiquitin carboxyl-terminal hydrolase 25 (Homo sapiens) (UniProt Q9UHP3); assay: Inhibition of USP25 in human LS174T cells assessed as downregulation of Tankyrase 1/2 protein level; type: cell-based
T2 sequence (whole entry): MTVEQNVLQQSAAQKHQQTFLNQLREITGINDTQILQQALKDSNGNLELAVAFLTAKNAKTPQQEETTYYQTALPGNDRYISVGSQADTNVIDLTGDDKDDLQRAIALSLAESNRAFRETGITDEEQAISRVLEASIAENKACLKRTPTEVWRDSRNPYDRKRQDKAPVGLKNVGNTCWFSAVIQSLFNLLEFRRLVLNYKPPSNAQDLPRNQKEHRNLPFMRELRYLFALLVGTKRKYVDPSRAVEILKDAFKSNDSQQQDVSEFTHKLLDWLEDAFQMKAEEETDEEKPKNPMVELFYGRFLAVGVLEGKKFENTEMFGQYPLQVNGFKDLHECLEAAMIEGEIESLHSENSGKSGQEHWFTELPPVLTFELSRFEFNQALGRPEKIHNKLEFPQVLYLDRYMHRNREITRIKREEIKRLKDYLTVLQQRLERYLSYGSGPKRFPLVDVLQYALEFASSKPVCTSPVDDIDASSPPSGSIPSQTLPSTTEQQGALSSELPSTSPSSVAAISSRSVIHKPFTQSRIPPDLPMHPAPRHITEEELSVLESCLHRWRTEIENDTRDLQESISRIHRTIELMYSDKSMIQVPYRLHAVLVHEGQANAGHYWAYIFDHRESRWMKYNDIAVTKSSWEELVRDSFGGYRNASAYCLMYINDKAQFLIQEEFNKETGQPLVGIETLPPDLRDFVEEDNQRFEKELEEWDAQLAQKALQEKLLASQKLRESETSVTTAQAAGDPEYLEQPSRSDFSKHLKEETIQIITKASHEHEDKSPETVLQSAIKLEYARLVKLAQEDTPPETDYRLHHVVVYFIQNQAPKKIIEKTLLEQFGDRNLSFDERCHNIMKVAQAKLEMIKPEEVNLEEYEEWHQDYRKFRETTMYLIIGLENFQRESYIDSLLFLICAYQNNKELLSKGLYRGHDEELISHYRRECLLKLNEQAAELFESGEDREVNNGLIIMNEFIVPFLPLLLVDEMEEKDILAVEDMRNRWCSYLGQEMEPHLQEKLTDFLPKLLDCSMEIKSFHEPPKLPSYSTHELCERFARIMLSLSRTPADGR

HCT-116 [7] = assay: Inhibition of colony formation in human HCT-116 cells at 17.5 uM by crystal violet staining assay; type: functional, cell-based
LS174T [8] = assay: Inhibition of colony formation in human LS174T cells at 15 uM by crystal violet staining assay; type: functional, cell-based
HCT-116 [9] = assay: Antiproliferative activity against human HCT-116 cells assessed as effect on Bcl-2 protein level at 30 to 80 uM incubated for 1 day by western blotting analysis; type: functional, cell-based; details: dose 30-80 µM

| SMILES | IC50 [1] | inhibition (HCT-116 [2]) | inhibition (LS174T [3]) | Activity (HCT-116 [4]) | inhibition (LS174T [5]) | inhibition [6] | inhibition (HCT-116 [7]) | inhibition (LS174T [8]) | Activity (HCT-116 [9]) |
| --- | --- | --- | --- | --- | --- | --- | --- | --- | --- |
| CS(=O)(=O)c1ccc(C(=O)Nc2ccc(Cl)c(-c3ccc4c(c3)CCNC4)c2)c(Cl)c1 | 100 nM | Active | Active | inactive |  |  |  |  |  |
| CS(=O)(=O)c1ccc(C(=O)Nc2ccc(Cl)c(-c3ccc4c(c3)CNC4)c2)c(Cl)c1 | 40 nM | Active |  | inactive | Active | Active |  |  |  |
| CS(=O)(=O)c1ccc(C(=O)Nc2ccc(Cl)c(-c3ccc(C4(N)CC4)cc3)c2)c(Cl)c1 | 300 nM |  |  |  |  |  | Active | Active | inactive |

Reference: ChEMBL document CHEMBL5325426, “Structure-based discovery of potent USP28 inhibitors derived from Vismodegib” (Eur J Med Chem, 2023)
